The record followed here is US8304371B2, “Insecticidal arylpyrrolines” (Bayer Cropscience AG, priority 2008, dated 2012).

Holding throughout (format): in vivo
In series [1] the test system is Cat Fleas (Ctenocephalides fells). The experiment in a line: Test against cat fleas, blood feeding. The settings on record: for mortality at 100 ppm: Ctenocephalides, 48 h, read-out: mortality rate. The procedure:
(§1) Solvent: Dimethylsulfoxide
About 10 to 15 adult cat fleas are provided in a container exclusive for fleas. An exclusive container containing the test solution is covered with Parafilm, reversed upside down, and then mounted on top of the flea container, so that the cat fleas can suck the blood in the container. The test solution is maintained at 37° C., and the flea container is maintained at room temperature. After 2 days the mortality rate of the cat fleas is measured. 100% means that all of the cat fleas have been killed, while 0% means that all are alive.

Series [2] concerns Two-Spotted Spider Mite (Tetranvchus urticae). Kind of series: Test against two-spotted spider mite, spray on kidney bean. The settings on record: active compound concentration 100 ppm; adult mites; after 7 days. The procedure: (§2) Unless nomentioned otherwise, the test solutions were prepared as follows:
(§3) Containing as solvent: Dimethylformamide, 3 parts by weight; and as emulsifier: Polyoxyethylene alkyl phenyl ether, 1 part by weight
(§4) To prepare the test solution, 1 part by weight of an active compound is mixed with the above-mentioned amount of solvent containing the above-mentioned amount of emulsifier, and the mixture is diluted with water to the desired concentration.
50 to 100 adult two-spotted spider mites were inoculated onto the leaves of kidney beans at the two-true leaf stage, which plant had been cultivated in a pot having a diameter of 6 cm. After one day, test solution at the appropriate concentration was sprayed thereon in a sufficient amount using a spray gun. After the spraying, the plant pot was placed inside a greenhouse, and after 7 days, the acaricidal activity was calculated. An acaricidal activity of 100% means that all mites were killed, whereas an acaricidal activity of 0% means that no mite was killed.

In series [3] the test system is Cucurbit Leaf Beetle (Aulacophora femoralis). The experiment in a line: Test against cucurbit leaf beetle, cucumber leaf dip. The settings on record: active compound concentration 100 ppm; second-instar larvae; after 7 days. As for the experimental part:
as §2, §3, §4
Cucumber leaves were immersed in the test solution at the appropriate concentration, and the leaves were dried in air. The leaves were then placed in a plastic cup containing aseptically sterilized black soil, and five second-instar larvae of cucurbit leaf beetle were released therein. After 7 days, the number of dead larvae was counted, and thus the insecticidal activity was calculated. An insecticidal activity of 100% means that all beetles were killed, whereas an insecticidal activity of 0% means that no beetle was killed.

Series [4] concerns Tobacco Cutworm (Spodoptera litura) Larvae. Kind of series: Test against tobacco cutworm (Spodoptera litura) larvae, leaf dip. To be noted: active compound concentration 100 ppm; third-instar larvae; after 7 days. The procedure: as §2, §3, §4
The leaves of sweet potato were immersed in the test solution at the appropriate concentration, and the leaves were dried in air. The leaves were then placed in a petri dish having a diameter of 9 cm, and ten third-instar larvae of tobacco cutworm were released therein. The petri dish was placed in a temperature chamber at 25° C. After 2 days and 4 days sweet potato leaves were additionally added. After 7 days, the number of dead larvae was counted, to calculate the insecticidal activity. An insecticidal activity of 100% means that all larvae were killed, whereas an insecticidal activity of 0% means that no larva was killed. In the current test, the results of two petri dishes for each partition were averaged.

Series [5] concerns adult engorged female Boophilus microplus ticks. Kind of series: Boophilus microplus test, immersion of engorged females. To be noted: Rhipicephalus microplus, 168 h, read-out: activity (mortality in %). As for the experimental part: Solvent: Dimethylsulfoxid
To produce a suitable preparation of active compound, 10 mg of active compound are dissolved in 0.5 ml solvent, and the concentrate is diluted with water to the desired concentration.
Eight to ten adult engorged female Boophilus microplus ticks are placed in perforated plastic beakers and immersed in aqueous compound solution for one minute. Ticks are transferred to a filter paper in a plastic tray. Egg deposition of fertile eggs is monitored after.
After 7 days mortality in % is determined. 100% means that all the ticks have been killed; 0% means that none of the ticks have been killed.

Series [6] concerns Nymphs of the tick Amblyomma hebraeum. Kind of series: Amblyomma hebraeum test, nymph immersion. The settings on record: 48 h, read-out: activity (mortality in %). As for the experimental part:
as §1
To produce a suitable preparation of active compound. 1 part by weight of active compound is mixed with the stated amount of solvent, and the concentrate is diluted with containing solvent to the desired concentration.
Nymphs of the tick Amblyomma hebraeum are placed in perforated plastic beakers and immersed in aqueous compound solution for one minute. Ticks are transferred to a filter paper in a Petri dish and incubated in a climate chamber for 42 days.
After 2 days mortality in % is determined. 100% means that all the ticks have been killed; 0% means that none of the ticks have been killed.

The test system of series [7] is Housefly (Musca domestica). The experiment in a line: Test against housefly. The settings on record: for mortality at 100 ppm: Musca domestica, 48 h, read-out: mortality rate. As for the experimental part: as §1
(§5) In order to make a suitable test solution, 10 mg of an active compound is dissolved in 0.5 ml of the solvent, and the mixture is diluted with water to a predetermined concentration.
In a preliminary stage of the test, a piece of sponge having a certain size is soaked with a mixture of sugar and the test solution is placed in a test container. Ten adult houseflies are introduced to the container, and the container is covered with a perforated lid.
After 2 days, the mortality rate of the houseflies is measured. At that time, 100% means that all of the houseflies have been killed, and 0% means that all are alive.

For series [8], the system named is Strain of Green Peach Aphid (Mvzus persicas) which is Resistant to Organic Phosphorus and Carbamate Agents. The experiment in a line: Test against resistant green peach aphid, spray on egg plant. To be noted: active compound concentration 500 ppm; after 7 days. As for the experimental part: as §2, §3, §4
About 30 to 50 of the resistant green peach aphids were inoculated per seedling, onto the leaves of egg plant at the two-true leaf stage, which plant had been cultivated in a pot having a diameter of 6 cm. One day after the inoculation, the test solution at the appropriate concentration was sprayed thereon in a sufficient amount using a spray gun. After the spraying, the plant pot was placed in a greenhouse at 28° C., and after 7 days, the insecticidal activity was calculated. An insecticidal activity of 100% means that all aphids were killed, whereas an insecticidal activity of […] means that no aphid was killed. The test was repeated two times.

In series [9] the test system is Cattle Tick (Boophilus microplus). Kind of series: Test against cattle tick, injection. The settings on record: 20 μg/animal injected; after 7 days; 100% means that all eggs are infertile. As for the experimental part:
as §1
In order to make a suitable test solution, 10 mg of an active compound is dissolved in 0.5 ml of the above mentioned solvent, and the mixture is diluted with water to a predetermined concentration.
The test solution is injected into the abdomens of five fully-fed female adult cattle ticks. The cattle ticks are transferred to a replica plate, and are bred in a breeding vessel for a certain time period. Egg deposition of fertile eggs is monitored.
After 7 days the mortality rate of the cattle ticks is measured. 100% means that all eggs are infertile; and 0% means that all eggs are fertile.

Series [10] has as its system Sheep Blowfly (Lucillia cuprina). The experiment in a line: Test against sheep blowfly. The settings on record: active compound concentration 100 ppm; after 2 days. As for the experimental part: as §1, §5
Minced horse meat having a size of 1 square centimeter, and 0.5 ml of the test solution are placed in a test tube, and about 20 to 30 adult sheep blowflies are introduced therein.
After 2 days the mortality rate of the sheep blowflies is measured. 100% means that all of the sheep blowflies have been killed, and 0% means that all are alive.

Where [11] appears, read: active compound concentration 100 ppm in blood, adult fleas, after 2 days.
The mark [12] stands for this setting: application rate 100 ppm, immersed one minute, after 7 days.
Setting [13] is: application rate 100 ppm, immersed one minute, after 2 days.

Like-named read-outs stand apart in the source and are kept apart here.

What is called mortality is the share of the test organisms that died. With `N#Cc1cc(C2=NCC(c3cc(Cl)c(Cl)c(Cl)c3)(C(F)(F)F)C2)ccc1-n1cncn1` (stereo not drawn) [1-78, 2-(1H-1,2,4-triazol-1-yl)-5-[3-(3,4,5-trichlorophenyl)-3-(trifluoromethyl)-3,4-dihydro-2H-pyrrol-5-yl]-benzonitrile], the mortality at 100 ppm in series [1] (setting [11]), in series [5] (setting [12]), in series [6] (setting [13]) and in series [7] was at least 80% throughout. In series [2], the acaricidal activity amounted to 100%. Moreover, the insecticidal activity in [3], in [4] and in series [8] was 100% throughout.
Take `CC(=O)NCc1ccc(C2=NCC(c3cc(Cl)cc(Cl)c3)(C(F)(F)F)C2)cc1Br` (stereo not drawn) [2-13, N-{2-bromo-4-[3-(3,5-dichlorophenyl)-3-(trifluoromethyl)-3,4-dihydro-2H-pyrrol-5-yl]benzyl}acetamide]: the mortality at 100 ppm in series [1] (setting [11]), in series [5] (setting [12]) and in series [7] was at least 80% throughout. Further, the insecticidal activity in series [4] amounted to 100%.
For `FC(F)(F)C1(c2cc(Cl)cc(Cl)c2)CN=C(c2ccc(-n3cncn3)c(Br)c2)C1` (stereo not drawn) [1-21], the mortality rate result is “at least 90%” in [1] (setting [11]); 100% in series [9]; 100% in series [7] (active compound concentration 100 ppm, adult houseflies, after 2 days); 100% in series [10]. Also, in series [2], the acaricidal activity is 100%. The insecticidal activity in series [3], in series [4] and in [8] was 100% throughout.
As for `CS/C(=N\C[Si](C)(C)C)c1ccc(COC(C)=O)c2ccccc12` [15-2, {4-[(Z)-(methylsulfanyl){[(trimethylsilyl)methyl]imino}methyl]naphthalen-1-yl}methyl acetate], the mortality at 100 ppm in [1], in series [5], in [6] and in series [7] was at least 80% each time.
As to `CC(=O)NCc1ccc(C2=NCC(c3cc(Cl)c(Cl)c(Cl)c3)(C(F)(F)F)C2)c2ccccc12` (stereo not drawn) [11-5], in series [2], the acaricidal activity is given as 100%. Moreover, the insecticidal activity in [3], in series [4] and in series [8] was 100% each time.
For `CCC(=O)NCc1ccc(C2=NCC(c3cc(Cl)c(Cl)c(Cl)c3)(C(F)(F)F)C2)cc1C(F)(F)F` (stereo not drawn) [2-162], the acaricidal activity in [2] is recorded as 100%. The insecticidal activity in [3], in [4] and in [8] was 100% in each case.
The molecule `CCC(=O)NCc1ccc(C2=NCC(c3cc(C(F)(F)F)cc(C(F)(F)F)c3)(C(F)(F)F)C2)cc1C(F)(F)F` (stereo not drawn) [2-166] showed an acaricidal activity in series [2] of 100%. Moreover, the insecticidal activity in series [3], in [4] and in [8] was 100% in each case.
`CC(=O)NCc1ccc(C2=NCC(c3cc(C(F)(F)F)cc(C(F)(F)F)c3)(C(F)(F)F)C2)cc1C(F)(F)F` (stereo not drawn) [2-165]: the acaricidal activity in [2] turned out to be 100%. Besides, the insecticidal activity in series [3], in series [4] and in series [8] was 100% each time.
Take `O=C(NCc1ccc(C2=NCC(c3cc(C(F)(F)F)cc(C(F)(F)F)c3)(C(F)(F)F)C2)cc1Br)C1CC1` (stereo not drawn) [2-179]: the acaricidal activity in series [2] came to 100%. For the same molecule, the insecticidal activity in series [3], in series [4] and in series [8] was 100% throughout.
`N#Cc1cc(C2=NCC(c3cc(Cl)cc(Cl)c3)(C(F)(F)F)C2)ccc1-n1cncn1` (stereo not drawn) [Compound No. 1-39, 5-[3-(3,5-dichlorophenyl)-3-(trifluoromethyl)-3,4-dihydro-2H-pyrrol-5-yl]-2-(1H-1,2,4-triazol-1-yl)benzonitrile]: the mortality at 100 ppm is 100% in series [1] (setting [11]), at least 80% in [5] (setting [12]), at least 80% in [6] (setting [13]) and 100% in series [7]. Also, the acaricidal activity in [2] is recorded as 98%. Further, the values for the insecticidal activity in series [3], in series [4] and in series [8] were 100%, 100% and 98%, respectively. For the same molecule, the mortality rate in series [10] came out at 100%.
In series [2], `O=C(NCc1ccc(C2=NCC(c3cc(Cl)c(Cl)c(Cl)c3)(C(F)(F)F)C2)cc1Br)C1CC1` (stereo not drawn) [2-170] came in with an acaricidal activity of 100%. For the same molecule, the insecticidal activity in series [3], in series [4] and in series [8] was 100% in each case.
